These molecules were tested on gastric acid secretion (assay: Inhibition of pentagastrin-induced gastric acid secretion in anesthetized dogs (modified perfusion technique, intraduodenal test compound)). Conditions: 1 mg per kg body weight, dog, pentagastrin-stimulated.
Assay type: in vivo
Description: To test the gastric acid secretion activity, a modified perfusion technique was performed using dogs as test animals. An anesthetized dog was fitted with one tube going through the esophagus to the stomach for instillation of fluid, and a second tube extending through the duodenum by way of the ligated pylorus for fluid drainage. Every 15 minutes, 5 ml/kg body weight of a saline solution was introduced into the test animal, and drained samples collected and titrated to pH 7.0 with 0.04N NaOH using a radiometer automatic titrator to calculate the acid output.
Gastric acid secretion was induced by pentagastrin by administering 1-2 μg/kg per hour, giving a submaximal secretory response. Test compounds in a 0.5% Methocel (methyl cellulose) suspension were introduced into the duodenum close to the ligation at least two hours following onset of stimulation, when the secretion had reached a steady level for three consecutive 15 minute periods.
The following gastric acid inhibiting effect data were obtained for a number of compounds tested according to the method described.
For `[O-][S+](Cc1ccccn1)c1nc2ccccc2[nH]1` (stereo not shown) [Example 1, 2-[2-pyridylmethylsulfinyl]-benzimidazole], the “inhibited gastric acid secretion” value was 90%.

Same assay, conditions: Canis lupus familiaris, dose 1 mg/kg, dog, pentagastrin-stimulated
`CC(c1ccccn1)[S+]([O-])c1nc2ccccc2[nH]1` (stereo not shown) [Example 16] was tested, and the inhibition in vivo at 1 mg/kg was 37%.
`Cc1ccc2[nH]c([S+]([O-])Cc3ccccn3)nc2c1` (stereo not shown) [Example 21] gave an inhibition in vivo at 1 mg/kg of 50%.

Same assay, conditions: Canis lupus familiaris, dose 2 mg/kg, dog, pentagastrin-stimulated
For `CCC(c1ccccn1)[S+]([O-])c1nc2ccccc2[nH]1` (stereo not shown) [Example 28], the inhibition in vivo at 2 mg/kg was 65%.

Same assay, conditions: Canis lupus familiaris, dose 5 mg/kg, dog, pentagastrin-stimulated
`Cc1cc(C)c2nc([S+]([O-])Cc3ccccn3)[nH]c2c1` (stereo not shown) [Example 2] was tested, and the inhibition in vivo at 5 mg/kg was 94%.
Work on `CCc1ccc2[nH]c([S+]([O-])Cc3ccccn3)nc2c1` (stereo not shown) [Example 3] yielded an inhibition in vivo at 5 mg/kg of 50%.
Molecule `CCOC(=O)c1ccc2[nH]c([S+]([O-])Cc3ccccn3)nc2c1` (stereo not shown) [Example 9] has an inhibition in vivo at 5 mg/kg of 8%.
`CC(c1ccccn1)[S+]([O-])c1nc2ccccc2[nH]1` (stereo not shown) [Example 16] showed an inhibition in vivo at 5 mg/kg of 96%.
Molecule `Cc1ccc2[nH]c([S+]([O-])Cc3ccccn3)nc2c1` (stereo not shown) [Example 21] has an inhibition in vivo at 5 mg/kg of 95%.
Work on `[O-][S+](Cc1ccccn1)c1nc2cc(Cl)ccc2[nH]1` (stereo not shown) [Example 22] yielded an inhibition in vivo at 5 mg/kg of 35%.
`CCCc1ccc2[nH]c([S+]([O-])Cc3ccccn3)nc2c1` (stereo not shown) [Example 25] gave an inhibition in vivo at 5 mg/kg of 15%.
`Cc1ccc(C[S+]([O-])c2nc3cc(C)ccc3[nH]2)nc1` (stereo not shown) [Example 26] showed an inhibition in vivo at 5 mg/kg greater than 75%.
For `CCC(c1ccccn1)[S+]([O-])c1nc2ccccc2[nH]1` (stereo not shown) [Example 28], the inhibition in vivo at 5 mg/kg was 80%.
For `CCc1ccc2[nH]c([S+]([O-])C(C)c3ccccn3)nc2c1` (stereo not shown) [Example 30], the inhibition in vivo at 5 mg/kg was 60%.
Molecule `Cc1ccnc(C[S+]([O-])c2nc3cc(C)ccc3[nH]2)c1` (stereo not shown) [Example 42] has an inhibition in vivo at 5 mg/kg greater than 75%.
`Cc1cccnc1C[S+]([O-])c1nc2ccccc2[nH]1` (stereo not shown) [Example 43] gave an inhibition in vivo at 5 mg/kg greater than 75%.
For `CCc1ccc(C[S+]([O-])c2nc3cc(C)ccc3[nH]2)nc1` (stereo not shown) [Example 44], the inhibition in vivo at 5 mg/kg was 95%.
`CCc1ccc(C[S+]([O-])c2nc3ccccc3[nH]2)nc1` (stereo not shown) [Example 45] was tested, and the inhibition in vivo at 5 mg/kg was 90%.
In the case of `[O-][S+](Cc1ccccn1)c1nc2c(Cl)cccc2[nH]1` (stereo not shown) [Example 53], the inhibition in vivo at 5 mg/kg is reported as 30%.
In the case of `Cc1cc2nc([S+]([O-])C(C)c3ccccn3)[nH]c2cc1C` (stereo not shown) [Example 55], the inhibition in vivo at 5 mg/kg is reported as 30%.

Same assay, conditions: Canis lupus familiaris, dose 10 mg/kg, dog, pentagastrin-stimulated
`Cc1cc(Cl)cc2[nH]c([S+]([O-])Cc3ccccn3)nc12` (stereo not shown) [Example 4] gave an inhibition in vivo at 10 mg/kg of 41%.
For `CC(C)c1ccc2[nH]c([S+]([O-])Cc3ccccn3)nc2c1` (stereo not shown) [Example 23], the inhibition in vivo at 10 mg/kg was 80%.

— patent US4045563A, “Substituted 2-[pyridylalkylenesulfinyl]-benzimidazoles with gastric acid secretion inhibiting effects” (AB Hassle, priority 1975, dated 1977)
